Five compounds from US20250213512A1, “TRANSDERMAL ANALGESIC FORMULATION” (MEAT & LIVESTOCK AUSTRALIA LTD, priority 2017, published 2025) can be followed below.

The structures appear in SMILES notation. Where “and” joins values, the source holds several entries; their conditions need not be identical. Equal entries are not always repeated.

Data set [1] is described as follows: Optimising the candidate formulations: excipient effects on ketoprofen movement through cattle skin in vitro.
For data set [2] the following is noted: treated vs untreated cattle.
Protocol: Blood samples were analysed for cortisol and biomarkers once the study was completed.
A preliminary analysis of the proteins identified was undertaken using Principal Component Analysis (PCA) within the MarkerView software package (FIG. 21). This analysis looked at a comparison of groups for all time points (FIG. 21a), a comparison of dehorning vs. sham (FIG. 21b) and a comparison of treatment vs. placebo (FIG. 21c).
The nature of data set [3]: Clinical study (disbudding): behaviour ethogram, mixed effect Poisson / negative binomial models. Conditions: dehorned calves.
Protocol: Calf behaviour was monitored before and after dehoming in suitable time periods. The day before dehoming, the behaviour of all 36 calves were monitored for two hours to record the baseline variation, which was taken as 0 hour observation. Next day after dehoming, behaviour was recorded at 2-4 hour, 4-8 hour, 8-12 hour, 24 hour and 48 hours. There were 12 behaviour parameters recorded, as follows: Head shaking, Ear flicking, Tail wagging. Head rubbing, lying, ruminating, neck extending, grooming, walking, vocalising, feeding and drinking.
The method used to identify those variables was Confirmatory Factor Analysis (CFA) within Structural Equation Modelling Framework (SEM).
Separate models were used for each of the observed animal behavioural traits (FIG. 19). A mixed effect Poisson model with an animal fitted as random intercepts and time as random slope, and unstructured error term for the residuals. Behaviours trait at baseline (time 0) was centred and added to the fixed effect part of the model (essentially turning the model into a random slope model too). […] Overdispersed models (also those with excess zeros) were refitted using a negative binomial model.
Experimental time was fitted as a categorical variable to derive estimated at each time point, time 2 hr was used as the reference category. Treatment was also fitted as categorical variable, placebo as reference category. […]
Data set [4] in a line: Screening of NSAID and vehicle combinations: penetration through cattle skin in vitro (Table 13). The protocol:
Hair was removed using an electric clipper and the subcutaneous fat and musculature carefully trimmed away before the skin was cut into circular sections (approximately 2 cm diameter) using a metal wad punch, and placed in airtight ziplock bags, stored at −20° C. within 5 hr of slaughter.
The skin samples were defrosted immediately prior to use and mounted on Franz diffusion cells. […] A glass cover slip was applied to each donor chamber to prevent evaporation of the donor solution. Samples (200 μL) were collected at regular intervals from the receptor chambers via the sampling port and immediately replenished with equal volumes of fresh receptor solution. At the completion of each study, the diffusions cells were dismantled and the skin discs were rinsed and stored.

The nature of data set [5]: Solubility / precipitation of NSAIDs in the vehicles tested. The following applies: vehicles screened.
Setting [6] is: 10% Tolfenamic acid, vehicle KET67 (Eucalyptus oil, 70% 1,8-cineole), sample time 4 hrs.
[7] abbreviates: 10% Tolfenamic acid, vehicle KET67 (Eucalyptus oil, 70% 1,8-cineole), sample time 6 hrs.
Where [8] appears, read: 10% Tolfenamic acid, vehicle KET67 (Eucalyptus oil, 70% 1,8-cineole), sample time 8 hrs.
The mark [9] stands for this setting: 10% Tolfenamic acid, vehicle KET68 (propylene glycol, 100% PPG), sample time 4 hrs.
Where [10] appears, read: Tolfenamic acid 10% in vehicle KET51: Ethanol 70% EthOH, Propylene glycol 30% PPG, terpene None, 0.1M citrate, sample time 6 hrs.
The mark [11] stands for this setting: Tolfenamic acid 10% in vehicle KET51: Ethanol 70% EthOH, Propylene glycol 30% PPG, terpene None, 0.1M citrate, sample time 8 hrs.
Where [12] appears, read: Tolfenamic acid 10% in vehicle KET52: Ethanol 70% EthOH, Propylene glycol 30% PPG, Menthol 50 mg/mL, 0.1M citrate, sample time 0.5 hrs.
Where [13] appears, read: Tolfenamic acid 10% in vehicle KET52: Ethanol 70% EthOH, Propylene glycol 30% PPG, Menthol 50 mg/mL, 0.1M citrate, sample time 2 hrs.
[14] abbreviates: Tolfenamic acid 10% in vehicle KET52: Ethanol 70% EthOH, Propylene glycol 30% PPG, Menthol 50 mg/mL, 0.1M citrate, sample time 4 hrs.
Where [15] appears, read: Tolfenamic acid 10% in vehicle KET52: Ethanol 70% EthOH, Propylene glycol 30% PPG, Menthol 50 mg/mL, 0.1M citrate, sample time 6 hrs.
[16] abbreviates: Tolfenamic acid 10% in vehicle KET52: Ethanol 70% EthOH, Propylene glycol 30% PPG, Menthol 50 mg/mL, 0.1M citrate, sample time 8 hrs.
Where [17] appears, read: Tolfenamic acid 50%, vehicle KET39: Ethanol 50% EthOH, no co-solvent, Menthol 50 mg/mL, sample time 0.5 hrs, replicates 1-3.
Setting [18] is: Tolfenamic acid 50%, vehicle KET39: Ethanol 50% EthOH, no co-solvent, Menthol 50 mg/mL, sample time 2 hrs, replicates 1-3.
Setting [19] is: Tolfenamic acid 50%, vehicle KET39: Ethanol 50% EthOH, no co-solvent, Menthol 50 mg/mL, sample time 4 hrs, replicates 1-3.
The mark [20] stands for this setting: Vehicle KET52: 70% EthOH, 30% PPG (propylene glycol), Menthol 50 mg/mL, 0.1M citrate, drug conc 10%, sample time 0.5 hrs.
Setting [21] is: Vehicle KET52: 70% EthOH, 30% PPG (propylene glycol), Menthol 50 mg/mL, 0.1M citrate, drug conc 10%, sample time 8 hrs.
Where [22] appears, read: Vehicle KET53: 70% EthOH, 30% OA (oleyl alcohol), no terpene, 0.1M citrate, drug conc 10%, sample time 0.5 hrs.
The mark [23] stands for this setting: Vehicle KET53: 70% EthOH, 30% OA (oleyl alcohol), no terpene, 0.1M citrate, drug conc 10%, sample time 8 hrs.
The mark [24] stands for this setting: Vehicle KET54: 100% SRArl (Superfine Arlasolve), 0.1M citrate, drug conc 10%, sample time 6 hrs.

As to `CCO` [Ethanol, ethanol], in data set [1], the “effect of excipient on ketoprofen/NSAID penetration through cattle skin” value is “significantly enhanced penetration compared to other alcohols”.
On the same count and under the same terms, under `CCCCCCCCCCCCCC(=O)OC(C)C` [IPM, isopropyl myristate] stands “proving the more effective”.
Regarding `CC(C)O` [isopropanol], in data set [1], the “effect of excipient on ketoprofen/NSAID penetration through cattle skin” value is reported as “did not perform as well as ethanol”.
Turning to `CC(C(=O)O)c1cccc(C(=O)c2ccccc2)c1` (centres unmarked) [ketoprofen], the “effect on key biomarkers of pain and inflammation” value in data set [2] is “significantly affected key biomarkers of pain and inflammation”. Besides, the “head shaking compared with the placebo group” value in data set [3] is given as “significantly different from the placebo group”.
Take `Cc1c(Cl)cccc1Nc1ccccc1C(=O)O` [tolfenamic acid]: the analysis conc in data set [4] (10% Tolfenamic acid, vehicle KET66 (50% Ethanol, Eucalyptus oil 21% 1,8-cineole, 0.1M citrate), sample time 0.5 hrs) is 0.004; in data set [4] (10% Tolfenamic acid, vehicle KET67 (Eucalyptus oil, 70% 1,8-cineole), sample time 0.5 hrs) it was 0.005 and 0.003; in data set [4] (setting [6]), 0.01 and 0.005; in data set [4] (setting [7]), 0.006 and 0.005 and 0.008; in data set [4] (setting [8]), 0.006 and 0.005 and 0.004; in data set [4] (10% Tolfenamic acid, vehicle KET68 (propylene glycol, 100% PPG), sample time 0.5 hrs) it was 0.002. The analysis conc in data set [4] (setting [9]) is 0.007 and 0.004; in data set [4] (10% Tolfenamic acid, vehicle KET68 (propylene glycol, 100% PPG), sample time 6 hrs), 0.002; in data set [4] (Tolfenamic acid 10% in vehicle KET51: Ethanol 70% EthOH, Propylene glycol 30% PPG, terpene None, 0.1M citrate, sample time 2 hrs), 0.011 and 0.01; in data set [4] (Tolfenamic acid 10% in vehicle KET51: Ethanol 70% EthOH, Propylene glycol 30% PPG, terpene None, 0.1M citrate, sample time 4 hrs), 0.004 and 0.003; in data set [4] (setting [10]) it was 0.004 and 0.005; in data set [4] (setting [11]), 0.006 and 0.005 and 0.004. Moreover, the analysis conc in data set [4] (setting [12]) was 0.003; in data set [4] (setting [13]) it was 0.004 and 0.002; in data set [4] (setting [14]), 0.003; in data set [4] (setting [15]), 0.002; in data set [4] (setting [16]) it was 0.004; in data set [4] (setting [17]), 0.006. Further, the analysis conc is 0.009 in data set [4] (setting [18]); 0.004 in data set [4] (setting [19]); 0.002 in data set [4] (setting [20]); 0.004 in data set [4] (Vehicle KET52: 70% EthOH, 30% PPG (propylene glycol), Menthol 50 mg/mL, 0.1M citrate, drug conc 10%, sample time 4 hrs); 0.003 in data set [4] (Vehicle KET52: 70% EthOH, 30% PPG (propylene glycol), Menthol 50 mg/mL, 0.1M citrate, drug conc 10%, sample time 6 hrs); 0.007 and 0.004 in data set [4] (setting [21]). Besides, the analysis conc in data set [4] (setting [22]) is 0.002; in data set [4] (Vehicle KET53: 70% EthOH, 30% OA (oleyl alcohol), no terpene, 0.1M citrate, drug conc 10%, sample time 2 hrs) it was 0.005; in data set [4] (setting [23]) it was 0.047 and 0.08 and 0.04; in data set [4] (Vehicle KET54: 100% SRArl (Superfine Arlasolve), 0.1M citrate, drug conc 10%, sample time 0.5 hrs), 0.002; in data set [4] (setting [24]), 0.003 and 0.002 and 0.004. The Concentration in data set [4] (setting [6]) is 0.03 µg/mL and 0.015 µg/mL; in data set [4] (setting [7]), 0.018 µg/mL and 0.015 µg/mL and 0.024 µg/mL; in data set [4] (setting [8]) it was 0.018 µg/mL and 0.015 µg/mL and 0.012 µg/mL; in data set [4] (setting [9]), 0.021 µg/mL and 0.012 µg/mL; in data set [4] (setting [10]) it was 0.012 µg/mL and 0.015 µg/mL; in data set [4] (setting [11]), 0.018 µg/mL and 0.015 µg/mL and 0.012 µg/mL. The “Concentration” value in data set [4] (setting [12]) is 0.009 µg/mL; in data set [4] (setting [13]) it was 0.012 µg/mL and 0.006 µg/mL; in data set [4] (setting [14]) it was 0.009 µg/mL; in data set [4] (setting [15]) it was 0.006 µg/mL; in data set [4] (setting [16]), 0.012 µg/mL; in data set [4] (Tolfenamic acid 50%, vehicle KET34: Ethanol 70% EthOH, no co-solvent, Menthol 50 mg/mL, sample time 0.5 hrs, replicates 1-3) it was 0 µg/mL. Further, the Concentration is 0 µg/mL in data set [4] (Tolfenamic acid 50%, vehicle KET34: Ethanol 70% EthOH, no co-solvent, Menthol 50 mg/mL, sample time 2 hrs, replicates 1-3); 0 µg/mL in data set [4] (Tolfenamic acid 50%, vehicle KET34: Ethanol 70% EthOH, no co-solvent, Menthol 50 mg/mL, sample time 4 hrs, replicates 1-3); 0 µg/mL in data set [4] (Tolfenamic acid 50%, vehicle KET34: Ethanol 70% EthOH, no co-solvent, Menthol 50 mg/mL, sample time 6 hrs, replicates 1-3); 0 µg/mL in data set [4] (Tolfenamic acid 50%, vehicle KET34: Ethanol 70% EthOH, no co-solvent, Menthol 50 mg/mL, sample time 8 hrs, replicates 1-3); 0 μg/mL (2×) and 0.018 μg/mL in data set [4] (setting [17]); 0 μg/mL (2×) and 0.027 μg/mL in data set [4] (setting [18]). For the same compound, the Concentration in data set [4] (setting [19]) is 0.012 μg/mL and 0 μg/mL (2×); in data set [4] (Tolfenamic acid 50%, vehicle KET39: Ethanol 50% EthOH, no co-solvent, Menthol 50 mg/mL, sample time 6 hrs, replicates 1-3), 0 µg/mL; in data set [4] (Tolfenamic acid 50%, vehicle KET39: Ethanol 50% EthOH, no co-solvent, Menthol 50 mg/mL, sample time 8 hrs, replicates 1-3) it was 0 µg/mL; in data set [4] (setting [20]), 0.006 µg/mL; in data set [4] (Vehicle KET52: 70% EthOH, 30% PPG (propylene glycol), Menthol 50 mg/mL, 0.1M citrate, drug conc 10%, sample time 2 hrs) it was 0 µg/mL; in data set [4] (setting [21]), 0.021 µg/mL and 0.012 µg/mL. The Concentration in data set [4] (setting [22]) was 0.006 µg/mL; in data set [4] (setting [23]), 0.141 µg/mL and 0.24 µg/mL and 0.12 µg/mL; in data set [4] (Vehicle KET54: 100% SRArl (Superfine Arlasolve), 0.1M citrate, drug conc 10%, sample time 2 hrs), 0 µg/mL; in data set [4] (Vehicle KET54: 100% SRArl (Superfine Arlasolve), 0.1M citrate, drug conc 10%, sample time 4 hrs), 0 µg/mL; in data set [4] (setting [24]), 0.009 µg/mL and 0.006 µg/mL. For the same compound, the solubility in vehicles entry in data set [5] was “not particularly soluble in most of the vehicles tested”; in data set [5] (listed as Tolfenamic acid) it was “poorly soluble in almost every vehicle tested”.
